Reference: patent US20210161918A1, “TIGECYCLINE FOR TOPICAL TREATMENT OF ROOT CANAL SPACE” (THE UNIVERSITY OF NORTH CAROLINA AT CHAPEL HILL, priority 2018, published 2021)
Marks after values point to notes of the source that are not given here. Blank lines part the entries; values can stand above or below the compound they belong to.

Columns and labels:
[1] = system: Enterococcus faecalis (ATCC 4083), Streptococcus intermedius (ATCC 31412), Fusobacterium nucleatum (ATCC 49256), Porphyromonas gingivalis (ATCC 33277); assay: MIC and MBC by E-test; assay type: cell-based
Description: Four common endodontic pathogens were selected for the study: Enterococcus faecalis (ATCC 4083), Streptococcus intermedius (ATCC 31412), Fusobacterium nucleatum (ATCC 49256), and Porphyromonas gingivalis (ATCC 33277). […] Then, each microorganism was cultured in their recommended broth as follow; brain heart infusion (BHI) broth for […], Todd Hewitt broth for S. intermedius, chopped meat for F. nucleatum, and tryptic soy broth supplemented with hemin and vitamin K for P. gingivalis. […] One-way analysis of variance (ANOVA), followed by the Tukey's HSD (with p<0.05) was used for the four microorganisms to compare: A) the MICs and MBCs among tested antibiotics, B) the difference between baseline CFUs and post-treatment CFUs for different antibiotics/scaffold formulations and, C) the changes in color among the groups.

[2] = Crown color change measurement (tooth discoloration, CIE L*a*b*); design: species or system human
Excerpt: (§1) One hundred and twenty intact single rooted permanent human teeth were collected for the study. All teeth were autoclaved, then access cavities were prepeared and the canal instrumented to size 40/0.04, with saline irrigation. Teeth were autoclaved again to ensure absence of bacteria prior to bacterial inoculation. The root canals were then inoculated with the bacterial mixture, using syringe delivery, with the 30-gauge needle close to the working length. Access cavities were then sealed with a sterile sponge and Cavit (3M ESPE). All teeth were then incubated in the anaerobic chamber. The suspensions were replenished weekly for 3 weeks to allow for biofilm formation and maturation (14).
Crown color was measured as described previously (16). All color measurements were taken in a dark room inside the anaerobic chamber. The instrument was calibrated before the measurement in each group. • The mean baseline color measurements were taken prior to filling the root canal with the antibiotics (C0) and then at 1 week (C1), 2 weeks (C2), and 3 weeks (C3). The results were expressed in the CIE L*a*b* system (L* [black-white], a* [red-green] and b* [blue-yellow]). • Mean color change (ΔE) value was calculated using the following formula; […].
One-way analysis of variance (ANOVA), followed by the Tukey's HSD (with p<0.05) was used for the four microorganisms to compare: A) the MICs and MBCs among tested antibiotics, B) the difference between baseline CFUs and post-treatment CFUs for different antibiotics/scaffold formulations and, C) the changes in color among the groups.

[3] = system: polymicrobial biofilm of E. faecalis, S. intermedius, F. nucleatum and P. gingivalis in root canals; assay: Post-treatment CFUs in ex vivo root canals inoculated with bacterial mixture (3-week biofilm), dressed with antibiotics/hydrogel scaffolds; assay type: cell-based; details: for samples with bacterial growth: n=15 per group; for Log10 CFUs: 1 week dressing
Excerpt: as §1

[4] = comparison among tested antibiotics, P<0.05

Minimum Inhibitory Concentration (MIC) [1, 4]: significantly higher
Compound: O=C(O)c1cn(C2CC2)c2cc(N3CCNCC3)c(F)cc2c1=O [Ciprofloxacin, ciprofloxacin]
Minimum Bactericidal Concentration (MBC) [1, 4]: significantly higher

Compound: Cc1ncc([N+](=O)[O-])n1CCO [metronidazole]
inhibition zone ([1]; against any of tested microorganisms): no inhibition zone

mean color change (ΔE) ([2]; 1 mg/mL, one week post-treatment): 6.9±1.9
mean color change (ΔE) ([2]; 1 mg/ml, 2 and 3 weeks post-treatment): 8.4±2.0
tooth discoloration ([2]; greater than 1 mg/ml to about 10 mg/mL, after applying an inner bonding within the coronal endodontic access preparation): no detectable discoloration
Compound: CN(C)c1cc(NC(=O)CNC(C)(C)C)c(O)c2c1C[C@H]1C[C@H]3[C@H](N(C)C)C(O)=C(C(N)=O)C(=O)[C@@]3(O)C(O)=C1C2=O [Tigecycline]
samples with bacterial growth ([3]; 0.1 mg/mL): 93.3%
Log10 CFUs ([3]; 0.1 mg/ml in hydrogel scaffold): 3.38 ^b
samples with bacterial growth ([3]; 1 mg/mL): 33.3%
Log10 CFUs ([3]; 1 mg/ml in hydrogel scaffold): 0.93 ^c
